Data as given in patent publication US9776981B2, “Hepatitis C virus inhibitors” (BRISTOL-MYERS SQUIBB COMPANY, priority 2009, dated 2017).
Like-named read-outs stand apart in the source and are kept apart here.

System: HCV 1b genotype (HCV-neo replicon cells)
Test: HCV Replicon assay (HCV 1b genotype)
Format: cell-based
Conditions: Hepatitis C virus, HCV 1b genotype replicon
Procedure: An HCV Replicon assay was utilized in the present disclosure, and was prepared, conducted and validated as described in commonly owned PCT/US2006/022197 and in O'Boyle et al., Antimicrob. Agents Chemother., 49(4):1346-1353 (April 2005). Assay methods incorporating luciferase reporters have also been used as described (Apath.com).
HCV-neo replicon cells and replicon cells containing resistance substitutions in the NS5A region were used to test the currently described family of compounds. The compounds were determined to have differing degrees of reduced inhibitory activity on cells containing mutations vs. the corresponding inhibitory potency against wild-type cells. Thus, the compounds of the present disclosure can be effective in inhibiting the function of the HCV NS5A protein and are understood to be as effective in combinations as previously described in application PCT/US2006/022197 and commonly owned WO 04/014852. It should be understood that the compounds of the present disclosure can inhibit multiple genotypes of HCV. […] In one embodiment, compounds of the present disclosure are inhibitory versus 1a, 1b, 2a, 2b, 3a, 4a, and 5a genotypes.

[1] = class symbol, read-out: Range (EC50 against HCV 1b)

SMILES	EC50 [1]	EC50 (read-out: EC50)
COC(=O)N[C@H](C(=O)N1[C@@H]2C[C@@H]2C[C@H]1c1ncc(-c2cnc3cc(-c4ccc5nc([C@@H]6C[C@H]7C[C@H]7N6C(=O)[C@@H](NC(=O)OC)C6CCOCC6)[nH]c5c4)ccc3n2)[nH]1)C1CCOCC1 [Example 58, Methyl ((1S)-2-((1R,3S,5R)-3-(4-(6-(2-((1R,3S,5R)-2-((2S)-2-((methoxycarbonyl)amino)-2-(tetrahydro-2H-pyran-4-yl)acetyl)-2-azabicyclo[3.1.0]hex-3-yl)-1H-benzimidazol-5-yl)-2-quinoxalinyl)-1H-imidazol-2-yl)-2-azabicyclo[3.1.0]hex-2-yl)-2-oxo-1-(tetrahydro-2H-pyran-4-yl)ethyl)carbamate]	0.0101 to 1 nM	0.849 nM
COC(=O)N[C@H](C(=O)N1C[C@@H](C)C[C@H]1c1ncc(-c2ccc(-c3ccc4cc(-c5[nH]c([C@@H]6C[C@H](C)CN6C(=O)[C@@H](NC(=O)OC)C(C)C)nc5Cl)ccc4c3)cc2)[nH]1)C(C)C [Example 143, Methyl ((1S)-1-(((2S,4S)-2-(4-(4-(6-(4-chloro-2-((2S,4S)-1-((2S)-2-((methoxycarbonyl)amino)-3-methylbutanoyl)-4-methyl-2-pyrrolidinyl)-1H-imidazol-5-yl)-2-naphthyl)phenyl)-1H-imidazol-2-yl)-4-methyl-1-pyrrolidinyl)carbonyl)-2-methylpropyl)carbamate]	–	0.00105 nM
COC(=O)N[C@H](C(=O)N1[C@@H]2C[C@@H]2C[C@H]1c1ncc(-c2ccc3nc(-c4ccc5nc([C@@H]6C[C@H]7C[C@H]7N6C(=O)[C@@H](NC(=O)OC)C6CCOCC6)[nH]c5c4)cnc3c2)[nH]1)C1CCOCC1 [Example 53, Methyl ((1S)-2-((1R,3S,5R)-3-(4-(2-(2-((1R,3S,5R)-2-((2S)-2-((methoxycarbonyl)amino)-2-(tetrahydro-2H-pyran-4-yl)acetyl)-2-azabicyclo[3.1.0]hex-3-yl)-1H-benzimidazol-5-yl)-6-quinoxalinyl)-1H-imidazol-2-yl)-2-azabicyclo[3.1.0]hex-2-yl)-2-oxo-1-(tetrahydro-2H-pyran-4-yl)ethyl)carbamate]	1.01 to 1000 nM	1.81 nM
COC(=O)N[C@H](C(=O)N1CCC[C@H]1c1nc2ccc(-c3ccc4cc(-c5ccc6nc([C@@H]7CCCN7C(=O)[C@@H](NC(=O)OC)C7CC7)[nH]c6c5)ccc4c3)cc2[nH]1)C1CC1 [Example 11, Dimethyl (2,6-naphthalenediylbis(1H-benzimidazole-5,2-diyl(2S)-2,1-pyrrolidinediyl((1S)-1-cyclopropyl-2-oxo-2,1-ethanediyl)))biscarbamate]	0.0101 to 1 nM	0.0182 nM
CC(C)CC(=O)N[C@H](c1nc(-c2ccc(-c3ccc4cc(-c5c[nH]c([C@@H](NC(=O)CC(C)C)C(C)(C)C)n5)ccc4c3)cc2)c[nH]1)C(C)(C)C [Example 150, N-((1S)-1-(4-(4-(6-(2-((1S)-2,2-dimethyl-1-((3-methylbutanoyl)amino)propyl)-1H-imidazol-4-yl)-2-naphthyl)phenyl)-1H-imidazol-2-yl)-2,2-dimethylpropyl)-3-methylbutanamide]	1.01 to 1000 nM	–
COC(=O)N[C@@H](C(=O)N[C@H](c1nc(-c2ccc3cc(-c4ccc(-c5cnc([C@@H](NC(=O)[C@H](NC(=O)OC)C(C)C)C(C)(C)C)[nH]5)cc4)ccc3c2)c[nH]1)C(C)(C)C)C(C)C [Example 148, Methyl ((1R)-1-(((1S)-1-(4-(4-(6-(2-((1S)-1-(((2R)-2-((methoxycarbonyl)amino)-3-methylbutanoyl)amino)-2,2-dimethylpropyl)-1H-imidazol-4-yl)-2-naphthyl)phenyl)-1H-imidazol-2-yl)-2,2-dimethylpropyl)carbamoyl)-2-methylpropyl)carbamate]	1.01 to 1000 nM	8.43 nM
COC(=O)N[C@H](C(=O)N1[C@@H]2C[C@@H]2C[C@H]1c1ncc(-c2ccc3nc(-c4ccc5nc([C@@H]6C[C@H]7C[C@H]7N6C(=O)[C@@H](NC(=O)OC)C(C)C)[nH]c5c4)cnc3c2)[nH]1)C(C)C [Example 52, Methyl ((1S)-1-(((1R,3S,5R)-3-(4-(2-(2-((1R,3S,5R)-2-((2S)-2-((methoxycarbonyl)amino)-3-methylbutanoyl)-2-azabicyclo[3.1.0]hex-3-yl)-1H-benzimidazol-5-yl)-6-quinoxalinyl)-1H-imidazol-2-yl)-2-azabicyclo[3.1.0]hex-2-yl)carbonyl)-2-methylpropyl)carbamate]	–	0.0059 nM
COC(=O)N[C@H](C(=O)N1C[C@@H](C)C[C@H]1c1ncc(-c2ccc(-c3ccc4cc(-c5[nH]c([C@@H]6C[C@H](C)CN6C(=O)[C@@H](NC(=O)OC)C6CCOCC6)nc5Cl)ccc4c3)cc2)[nH]1)C1CCOCC1 [Example 144, Methyl ((1S)-2-((2S,4S)-2-(4-(4-(6-(4-chloro-2-((2S,4S)-1-((2S)-2-((methoxycarbonyl)amino)-2-(tetrahydro-2H-pyran-4-yl)acetyl)-4-methyl-2-pyrrolidinyl)-1H-imidazol-5-yl)-2-naphthyl)phenyl)-1H-imidazol-2-yl)-4-methyl-1-pyrrolidinyl)-2-oxo-1-(tetrahydro-2H-pyran-4-yl)ethyl)carbamate]	0.0101 to 1 nM	0.0177 nM
COC(=O)N[C@H](C(=O)N[C@H](c1nc(-c2ccc(-c3ccc4cc(-c5c[nH]c([C@@H](NC(=O)[C@@H](NC(=O)OC)C(C)C)C(C)(C)C)n5)ccc4c3)cc2)c[nH]1)C(C)(C)C)C(C)C [Example 149, methyl ((1S)-1-(((1S)-1-(4-(4-(6-(2-((1S)-1-(((2S)-2-((methoxycarbonyl)amino)-3-methylbutanoyl)amino)-2,2-dimethylpropyl)-1H-imidazol-4-yl)-2-naphthyl)phenyl)-1H-imidazol-2-yl)-2,2-dimethylpropyl)carbamoyl)-2-methylpropyl)carbamate]	0.0101 to 1 nM	–
